Test results taken from patent US11198699B2 (ALIGOS THERAPEUTICS, INC., priority 2019, dated 2021).

Tests used:
PRMT5/MEP50 = PRMT5/MEP50 (Homo sapiens (Human), UniProt O14744); assay: PRMT5/MEP50 enzyme inhibition assay, Assay 2 (384-well, MALDI mass spectrometry, histone H4 1-21 peptide); assay type: biochemical; settings: 1 μM SAM, 0.1 μM histone H4 1-21 peptide, 18-hour incubation at rt
Description: Compounds were tested for inhibition of methyltransferase activity in 384-well plate assay format using mass spectrometry technology. In this enzyme inhibition assay, compounds were tested in a 11-dose IC50 mode with 3-serial dilution, in duplicate, starting at 1, 10, or 100 μM. Reactions were carried out at 1 μM SAM and 0.1 μM histone H4 1-21 peptide as substrates for methyl transfer. Following an 18-hour incubation at rt, the reaction was stopped with 0.5% formic acid. Products of the reaction were captured while unreacted substrates were washed away, prior to MALDI mass spectrometry detection and analysis. Percent enzyme activity was calculated based on no inhibitor DMSO control as 100% activity. EC50 values were determined in GraphPad Prism 8 using the [inhibitor] vs. response—Variable slope (four parameters) function.
Compounds of Formula (I) show activity in this assay. A value of ‘A’ in the table below indicates an IC50 of <1 nM, a value of ‘B’ indicates an IC50≥1 nM to ≤100 nM, and a value of ‘C’ indicates an IC50 value of >100 nM.

HepG2 hepatoma cells = assay: Cell proliferation assay, HepG2 (CellTiter-Glo, 7 days); assay type: cell-based; settings: HepG2, 7 days, CellTiter-Glo 2.0
Description: (§1) HepG2 hepatoma cells (ATCC, HB-8065) were maintained in DMEM with high glucose (Lonza, 12-914F) supplemented with 10% fetal bovine serum (FBS; Biowest, S181B-500) and 2 mM L-glutamine (Biowest, X0551-100) at 37° C. and 5% CO2. A549 lung carcinoma cells (ATCC, CCL-185) were maintained in F-12K medium (ThermoFisher 21127030) supplemented with 10% FBS at 37° C. and 5% CO2. Exponentially growing HepG2 or A549 were plated in white, clear-bottom 96-well plates (Corning, 3903) at a cell density of 2000 (HepG2) or 350 (A549) cells per well in 199 μL of HepG2 medium. Next, 1 μL of a 5-fold 9-point dilution series of test compound in DMSO was added to the different wells. Cells were incubated at 37° C. 5% CO2 for 7 days. Cell viability was assessed on day 7 with the CellTiter-Glo 2.0 Cell Viability assay kit (Promega, G9243) to quantify the intracellular amounts of ATP: first, 100 μL of cell culture medium was removed from each well, next 100 μL of CellTiter-Glo® 2.0 Reagent was added and plates were shaken for 2 minutes on an orbital shaker. After 10 minutes stabilization at room temperature, read-out was performed on a ThermoFisher VarioSkan Lux plate reader. Counts were normalized to DMSO control (0% inhibition) and the cytotoxic control (100% inhibition) and EC50 values were determined in GraphPad Prism 8 using the [Agonist] vs. response—Variable slope (four parameters) function.
(§2) As shown by the data of Table 2, compounds of Formula (I) have activity in this assay. A value of ‘A’ in the table below indicates an EC50 of <20 nM, a value of ‘B’ indicates an EC50≥20 nM to <100 nM, a value of ‘C’ indicates an EC50 value of EC50≥100 nM to <1000 nM and a value of ‘D’ indicates an EC50≥1000 nM

[1] = test system: A549 lung carcinoma cells; assay: Cell proliferation assay, A549 (CellTiter-Glo, 7 days); assay type: cell-based; settings: A549, 7 days, CellTiter-Glo 2.0
Description: as §1, §2

PRMT5/MEP50, sequence (O14744 whole entry): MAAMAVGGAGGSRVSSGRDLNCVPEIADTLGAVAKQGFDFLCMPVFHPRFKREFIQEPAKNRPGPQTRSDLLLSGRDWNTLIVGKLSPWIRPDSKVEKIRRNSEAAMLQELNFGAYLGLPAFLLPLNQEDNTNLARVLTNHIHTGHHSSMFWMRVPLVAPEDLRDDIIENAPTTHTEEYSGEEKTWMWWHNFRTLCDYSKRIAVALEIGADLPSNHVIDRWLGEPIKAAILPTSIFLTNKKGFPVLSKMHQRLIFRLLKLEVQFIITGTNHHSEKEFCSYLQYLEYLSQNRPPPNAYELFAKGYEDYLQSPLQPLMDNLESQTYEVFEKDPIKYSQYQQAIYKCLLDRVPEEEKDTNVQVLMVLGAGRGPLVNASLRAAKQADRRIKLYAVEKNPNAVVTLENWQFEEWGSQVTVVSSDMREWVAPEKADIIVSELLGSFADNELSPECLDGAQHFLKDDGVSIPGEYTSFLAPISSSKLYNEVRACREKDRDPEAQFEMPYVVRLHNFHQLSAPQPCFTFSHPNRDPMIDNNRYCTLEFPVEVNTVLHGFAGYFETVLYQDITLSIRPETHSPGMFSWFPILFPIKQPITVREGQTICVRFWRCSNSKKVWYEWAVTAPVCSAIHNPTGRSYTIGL
PRMT5/MEP50, sequence (Q9BQA1 whole entry partner): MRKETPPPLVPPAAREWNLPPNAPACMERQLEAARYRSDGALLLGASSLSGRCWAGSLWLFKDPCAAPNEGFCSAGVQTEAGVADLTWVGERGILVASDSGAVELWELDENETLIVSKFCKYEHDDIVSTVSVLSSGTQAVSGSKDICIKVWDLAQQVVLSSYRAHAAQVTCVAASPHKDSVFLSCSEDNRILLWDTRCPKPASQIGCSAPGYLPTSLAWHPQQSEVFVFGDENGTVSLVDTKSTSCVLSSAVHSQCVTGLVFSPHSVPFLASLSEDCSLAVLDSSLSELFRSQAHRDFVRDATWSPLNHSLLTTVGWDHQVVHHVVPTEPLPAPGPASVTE

Row | IC50 (PRMT5/MEP50) [µM] | EC50 (HepG2 hepatoma cells; Homo sapiens, 168 h) [µM] | EC50 ([1]; Homo sapiens, A549, 168 h) [µM] | Compound | EC50 (HepG2 hepatoma cells) [µM] | EC50 [1] [µM]
1 | < 0.001 | – | – | Cn1c(N)nc2cc(CC[C@@]3(C)C[C@@H](n4ccc5c(N)ncnc54)[C@H](O)[C@@H]3O)ccc2c1=O [Compound 29] | < 0.02 | 0.02 to 0.1
2 | < 0.001 | < 0.02 | < 0.02 | C[C@]1(CCc2cc(F)c3cc(Cl)c(N)nc3c2)C[C@@H](n2ccc3c(N)ncnc32)[C@H](O)[C@@H]1O [Compound 30, (1S,2R,3S,5R)-3-(2-(2-amino-3-chloro-5-fluoroquinolin-7-yl)ethyl)-5-(4-amino-7H-pyrrolo[2,3-d]pyrimidin-7-yl)-3-methylcyclopentane-1,2-diol] | – | –
3 | < 0.001 | < 0.02 | < 0.02 | Nc1nc2cc(CC[C@@]3(F)C[C@@H](n4ccc5c(N)ncnc54)[C@H](O)[C@@H]3O)cc(F)c2cc1Cl [Compound 36, (1S,2S,3R,5R)-3-(2-(2-amino-3-chloro-5-fluoroquinolin-7-yl)ethyl)-5-(4-amino-7H-pyrrolo[2,3-d]pyrimidin-7-yl)-3-fluorocyclopentane-1,2-diol] | – | –
4 | < 0.001 | < 0.02 | < 0.02 | C[C@]1(CCc2cc(F)c3ccc(N)nc3c2)C[C@@H](n2ccc3c(N)ncnc32)[C@H](O)[C@@H]1O [Compound 37, (1S,2R,3S,5R)-3-(2-(2-amino-5-fluoroquinolin-7-yl)ethyl)-5-(4-amino-7H-pyrrolo[2,3-d]pyrimidin-7-yl)-3-methylcyclopentane-1,2-diol] | – | –
5 | < 0.001 | 0.02 to 0.1 | 0.02 to 0.1 | C[C@]1(CCc2cc(F)c3cc(Cl)c(N)nc3c2)C[C@@H](n2ccc3c(N)nccc32)[C@H](O)[C@@H]1O [Compound 39, (1S,2R,3S,5R)-5-(4-amino-1H-pyrrolo[3,2-c]pyridin-1-yl)-3-(2-(2-amino-3-chloro-5-fluoroquinolin-7-yl)ethyl)-3-methylcyclopentane-1,2-diol] | – | –
6 | < 0.001 | < 0.02 | < 0.02 | C[C@]1(CCc2cc3nc(N)ccc3c(F)c2F)C[C@@H](n2ccc3c(N)ncnc32)[C@H](O)[C@@H]1O [Compound 41, (1S,2R,3S,5R)-3-(2-(2-amino-5,6-difluoroquinolin-7-yl)ethyl)-5-(4-amino-7H-pyrrolo[2,3-d]pyrimidin-7-yl)-3-methylcyclopentane-1,2-diol] | – | –
7 | < 0.001 | < 0.02 | < 0.02 | C[C@]1(CCc2cc(F)c3ccc(N)nc3c2)C[C@@H](n2ccc3c(N)ncc(F)c32)[C@H](O)[C@@H]1O [Compound 42, (1S,2R,3S,5R)-3-(2-(2-amino-5-fluoroquinolin-7-yl)ethyl)-5-(4-amino-7-fluoro-1H-pyrrolo[3,2-c]pyridin-1-yl)-3-methylcyclopentane-1,2-diol] | – | –
8 | < 0.001 | < 0.02 | < 0.02 | C=C[C@]1(CCc2cc(F)c3cc(Cl)c(N)nc3c2)C[C@@H](n2ccc3c(N)ncnc32)[C@H](O)[C@@H]1O [Compound 51] | – | –
9 | < 0.001 | < 0.02 | < 0.02 | C#C[C@]1(CCc2cc(F)c3cc(Cl)c(N)nc3c2)C[C@@H](n2ccc3c(N)ncnc32)[C@H](O)[C@@H]1O [Compound 52] | – | –

The remaining lines, values behind:

Row | Compound | IC50 (PRMT5/MEP50) [µM] | EC50 (HepG2 hepatoma cells; Homo sapiens, 168 h) [µM] | EC50 ([1]; Homo sapiens, A549, 168 h) [µM] | EC50 (HepG2 hepatoma cells) [µM] | EC50 [1] [µM]
10 | C[C@]1(CCc2ccc3cc4c(nc3c2)NC(=O)CO4)C[C@@H](n2ccc3c(N)ncnc32)[C@H](O)[C@@H]1O [Compound 31, 7-(2-((1S,2R,3S,4R)-4-(4-amino-7H-pyrrolo[2,3-d]pyrimidin-7-yl)-2,3-dihydroxy-1-methylcyclopentyl)ethyl)-2H-[1,4]oxazino[3,2-b]quinolin-3(4H)-one] | < 0.001 | 0.1 to 1 | ≥ 1 | – | –
11 | C[C@]1(CCc2ccc3ccc(N)nc3c2)C[C@@H](n2ccc3c(N)nccc32)[C@H](O)[C@@H]1O [Compound 38, (1S,2R,3S,5R)-5-(4-amino-1H-pyrrolo[3,2-c]pyridin-1-yl)-3-(2-(2-aminoquinolin-7-yl)ethyl)-3-methylcyclopentane-1,2-diol] | < 0.001 | < 0.02 | < 0.02 | – | –
12 | Nc1nc2cc(CC[C@@]3(CO)C[C@@H](n4ccc5c(N)ncnc54)[C@H](O)[C@@H]3O)cc(F)c2cc1Cl [Compound 40, (1S,2R,3S,5R)-3-(2-(2-amino-3-chloro-5-fluoroquinolin-7-yl)ethyl)-5-(4-amino-7H-pyrrolo[2,3-d]pyrimidin-7-yl)-3-(hydroxymethyl)cyclopentane-1,2-diol] | < 0.001 | < 0.02 | < 0.02 | – | –
13 | C[C@]1(CCc2cc(F)c3cc(Cl)c(N)nc3c2)C[C@@H](n2cc(F)c3c(N)nccc32)[C@H](O)[C@@H]1O [Compound 43, (1S,2R,3S,5R)-3-(2-(2-amino-3-chloro-5-fluoroquinolin-7-yl)ethyl)-5-(4-amino-3-fluoro-1H-pyrrolo[3,2-c]pyridin-1-yl)-3-methylcyclopentane-1,2-diol] | < 0.001 | 0.02 to 0.1 | < 0.02 | – | –
14 | N#C[C@]1(CCc2cc(F)c3cc(Cl)c(N)nc3c2)C[C@@H](n2ccc3c(N)ncnc32)[C@H](O)[C@@H]1O [Compound 44, (1S,2R,3S,4R)-1-(2-(2-amino-3-chloro-5-fluoroquinolin-7-yl)ethyl)-4-(4-amino-7H-pyrrolo[2,3-d]pyrimidin-7-yl)-2,3-dihydroxycyclopentane-1-carbonitrile] | < 0.001 | 0.1 to 1 | 0.02 to 0.1 | – | –
15 | NC(=O)[C@]1(CCc2cc(F)c3cc(Cl)c(N)nc3c2)C[C@@H](n2ccc3c(N)ncnc32)[C@H](O)[C@@H]1O [Compound 45, (1R,2R,3S,4R)-1-(2-(2-amino-3-chloro-5-fluoroquinolin-7-yl)ethyl)-4-(4-amino-7H-pyrrolo[2,3-d]pyrimidin-7-yl)-2,3-dihydroxycyclopentane-1-carboxamide] | < 0.001 | 0.1 to 1 | 0.1 to 1 | – | –
16 | C[C@]1(CCCCc2ccc(Cl)c(N)n2)C[C@@H](n2ccc3c(N)ncnc32)[C@H](O)[C@@H]1O [Compound 46, (1S,2R,3S,5R)-3-(4-(6-amino-5-chloropyridin-2-yl)butyl)-5-(4-amino-7H-pyrrolo[2,3-d]pyrimidin-7-yl)-3-methylcyclopentane-1,2-diol] | < 0.001 | 0.1 to 1 | 0.1 to 1 | – | –
17 | C[C@]1(CCCCc2cccc(N)n2)C[C@@H](n2ccc3c(N)ncnc32)[C@H](O)[C@@H]1O [Compound 47] | < 0.001 | 0.1 to 1 | 0.02 to 0.1 | – | –
18 | C[C@]1(CCc2ccc3ccc(N)nc3c2)C[C@@H](c2ccc3c(N)ncnn23)[C@H](O)[C@@H]1O [Compound 48] | < 0.001 | < 0.02 | < 0.02 | – | –
19 | C[C@]1(CCc2ccc3cc(Cl)c(N)nc3c2)C[C@@H](n2ccc3c(N)ncc(F)c32)[C@H](O)[C@@H]1O [Compound 49] | < 0.001 | < 0.02 | < 0.02 | – | –
20 | C[C@]1(CCc2cc(F)c3cc(Cl)c(N)nc3c2)C[C@@H](n2ccc3c(N)nc(Cl)nc32)[C@H](O)[C@@H]1O [Compound 53] | < 0.001 | – | – | < 0.02 | < 0.02
21 | C[C@]1(CCc2ccc3cc(Br)c(N)nc3c2)C[C@@H](n2ccc3c(N)nc(Cl)nc32)[C@H](O)[C@@H]1O [Compound 54] | < 0.001 | < 0.02 | < 0.02 | – | –
22 | C[C@]1(CCc2ccc3ccc(N)nc3c2)C[C@@H](c2cnn3c(N)ncnc23)[C@H](O)[C@@H]1O [Compound 56] | < 0.001 | < 0.02 | < 0.02 | – | –
